Laboratory results from patent US10524455B2, “Methods and compositions for inducing hygienic behavior in honey bees” (University of North Carolina at Greensboro, priority 2015, dated 2020).

Experiments:
[1] = test system: honey bees (MH and control colonies); assay: Induced hygienic behavior study with synthesized P32 applied to cell caps by syringe; format: in vivo, honey bee; conditions: results discarded by the patent for methodological issues
Method: Methods: The pure P32 compound will be aliquoted and diluted in hexane. 1 ul of different dilutions will be applied onto larvae and/or caps of individual brood cells in three experimental hives. The VSH, MH, and control genotype (together, hereinafter, referred to as “line”) will be tested for their response. Hives from each source will be set up in an experimental apiary and standardized in size, brood, and resources. Brood frames containing uncapped 5th larval instars will be collected from each hive, and the location of the uncapped cells will be marked using a plastic transparency. Frames will be replaced into the hives, and cells that are capped within the next 16 hours will be recorded and used for the experiment. At day 4 post-capping, cells will be treated with hexane (a negative control) or one of the following dilutions of pure P32: 10^−1, 10^−3, 10^−5, 10^−7, 10^−9, 10^−11. Pin-killed brood will be used as a positive control. Twenty cells will receive each treatment in each colony for a total sample size of 1440 (20 cells×8 treatments×3 replicate hives×3 genotypes). Treatments will be randomly distributed across experimental combs and the location of each treatment recorded on a clear transparent sheet put over the comb. […] A new method for application of chemicals by airbrushing was also utilized to increase speed and quantity in chemical application (FIG. 12).

[2] = test system: honey bees (single VSH colony); assay: Induced hygienic behavior study with synthesized P32 applied to cell caps by airbrushing; format: in vivo, honey bee; conditions: for removal of pupae in treated brood cells compared to all control brood cells: roughly 10 ul per cell by airbrushing, 24 hours, controls: (Z)-16-dotriacontene at any concentration, hexane, no treatment; for dose dependence of removal: concentrations 1%, 0.3%, 0.1% by airbrushing
Method: Methods: The dose dependent removal effects of (Z)-10-tritriacontene and (Z)-16-dotriacontene applied to wax caps of honey bee brood cells were measured repeatedly in a single VSH colony. (Z)-10-tritriacontene, along with (Z)-16-dotriacontene and hexane controls were applied to capped honey bee brood cells using a Paasche H-100D Single Action Airbrush & Compressor system, operating at 25 PSI. To control the amount of brood cells exposed to each chemical treatment (and thus the dose per cell) 3″ diameter PVC pipe pieces were inserted into a brood frames containing capped pupae. Thus, for each treatment and replicate, 2 mL of solution was applied to a single 3″-diameter section of brood comb by airbrushing. Since there are roughly 200 cells per 3″ diameter circle, this is roughly 10 ul solution per cell. Concentrations of 1%, 0.3%, and 0.1% (Z)-10-tritriacontene and (Z)-16-dotriacontene were tested. Sample sizes for (Z)-10-tritriacontene were 532, 420, and 282 cells for concentrations of 1%, 0.3%, and 0.1%, respectively. Sample sizes for (Z)-16-dotriacontene were 289, 296, and 311 for concentrations of 1%, 0.3%, and 0.1%, respectively. Sample sizes for the hexane control and no treatment control were 425 and 154, respectively. The location of all assays on frames was randomized. The frequency of uncapping and removal was recorded at four hours and twenty-four hours post treatment. Chi-square analysis with Bonferroni correction was used to compare hygienic removal and uncapping between treatments.

| SMILES | removal of treated cells compared to hexane treated cells ([1]; MH colonies (both tested)) | removal of treated cells compared to hexane treated cells ([1]; control colonies) | removal of pupae in treated brood cells compared to all control brood cells ([2]; 0.3% in hexane) | removal of pupae in treated brood cells compared to all control brood cells ([2]; 1% in hexane) | dose dependence of removal [2] |
| --- | --- | --- | --- | --- | --- |
| CCCCCCCCC/C=C\CCCCCCCCCCCCCCCCCCCCCC [(Z)-10-tritriacontene] | significantly higher removal | no significant difference | significantly greater | significantly greater | removed in a dose-dependent manner |
| CCCCCCCCCCCCCCC/C=C\CCCCCCCCCCCCCCC [(Z)-16-dotriacontene, reference compound] |  |  |  |  | removed in a dose-dependent manner |
